Laboratory results: the supplement of paper PMC10307832

Key:
Assay in all cases: relative viability (nuclei count vs DMSO), 5 days (fraction); higher = more cells survive
Ibrutinib + Dasatinib = compound: C=CC(=O)N1CCC[C@@H](n2nc(-c3ccc(Oc4ccccc4)cc3)c3c(N)ncnc32)C1 [Ibrutinib] + Cc1nc(Nc2ncc(C(=O)Nc3c(C)cccc3Cl)s2)cc(N2CCN(CCO)CC2)n1 [Dasatinib] (partner 0.075 µM)
Summary of the method: (§1)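 Each reported value is a median over duplicate plates. It expresses relative viability: treated-well nuclei count divided by vehicle-well nuclei count. Lung cancer cell lines in 1536-well plates were dosed by pin tool a day after seeding, alone with one drug or with a fixed anchor-drug dose plus five library-drug doses (not always all listed) in √10 steps, and nuclei were counted after 5 days.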

BMX-IN-1 + OSI-027 = compound: C=CC(=O)Nc1cc(-n2c(=O)ccc3cnc4ccc(-c5ccc(NS(C)(=O)=O)cc5)cc4c32)ccc1C [BMX-IN-1] + COc1cccc2cc(-c3nc([C@H]4CC[C@H](C(=O)O)CC4)n4ncnc(N)c34)[nH]c12 [OSI-027] (partner 0.5 µM)
Summary of the method: as §1

BMX-IN-1 + Pictilisib = compound: C=CC(=O)Nc1cc(-n2c(=O)ccc3cnc4ccc(-c5ccc(NS(C)(=O)=O)cc5)cc4c32)ccc1C [BMX-IN-1] + CS(=O)(=O)N1CCN(Cc2cc3nc(-c4cccc5[nH]ncc45)nc(N4CCOCC4)c3s2)CC1 [Pictilisib] (partner 1 µM)
Summary of the method: as §1

BMX-IN-1 + AZD7762 = compound: C=CC(=O)Nc1cc(-n2c(=O)ccc3cnc4ccc(-c5ccc(NS(C)(=O)=O)cc5)cc4c32)ccc1C [BMX-IN-1] + NC(=O)Nc1cc(-c2cccc(F)c2)sc1C(=O)N[C@H]1CCCNC1 [AZD7762] (partner 0.2 µM)
Summary of the method: as §1

| Cell Line | relative viability (Ibrutinib + Dasatinib; first compound 0.005 µM) | relative viability (Ibrutinib + Dasatinib; first compound 0.05 µM) | relative viability (Ibrutinib + Dasatinib; first compound 0.1581 µM) | relative viability (Ibrutinib + Dasatinib; first compound 0.5 µM) | relative viability (BMX-IN-1 + OSI-027; first compound 0.02 µM) | relative viability (BMX-IN-1 + OSI-027; first compound 0.2 µM) | relative viability (BMX-IN-1 + OSI-027; first compound 0.6325 µM) | relative viability (BMX-IN-1 + OSI-027; first compound 2 µM) | relative viability (BMX-IN-1 + Pictilisib; first compound 0.02 µM) | relative viability (BMX-IN-1 + Pictilisib; first compound 0.2 µM) | relative viability (BMX-IN-1 + Pictilisib; first compound 0.6325 µM) | relative viability (BMX-IN-1 + Pictilisib; first compound 2 µM) | relative viability (BMX-IN-1 + AZD7762; first compound 0.02 µM) | relative viability (BMX-IN-1 + AZD7762; first compound 0.2 µM) | relative viability (BMX-IN-1 + AZD7762; first compound 0.6325 µM) | relative viability (BMX-IN-1 + AZD7762; first compound 2 µM) | relative viability (Ibrutinib + Dasatinib; first compound 0.01581 µM) |
| --- | --- | --- | --- | --- | --- | --- | --- | --- | --- | --- | --- | --- | --- | --- | --- | --- | --- |
| ABC-1 | 0.493 | 0.628 | 0.555 | 0.633 | 0.504 | 0.491 | 0.655 | 0.412 | 0.802 | 0.75 | 0.847 | 0.394 | 0.761 | 0.848 | 0.82 | 0.868 | – |
| LC-2-ad | 0.315 | 0.637 | 0.49 | 0.565 | 0.872 | 0.918 | 0.768 | 0.841 | 0.645 | 0.555 | 0.619 | 0.482 | 0.982 | 1.09 | 0.924 | 0.867 | 0.608 |
| NCI-H727 | – | 0.424 | – | 0.298 | 0.846 | 0.597 | 0.648 | 0.612 | 0.439 | 0.416 | 0.403 | 0.337 | 0.574 | 0.585 | 0.635 | 0.541 | 0.393 |
| NCI-H3122 | 0.816 | 0.699 | 0.676 | 0.771 | 1.23 | 1.1 | 1.3 | 1.1 | 0.689 | 0.632 | 0.571 | 0.675 | 1.22 | 1.16 | 1.11 | 1.07 | 0.841 |
| NCI-H322M | 0.218 | 0.242 | 0.241 | 0.238 | 0.581 | 0.534 | 0.618 | 0.502 | 0.558 | 0.505 | 0.532 | 0.583 | 0.532 | 0.559 | 0.714 | 0.485 | 0.236 |
| NCI-H441 | 0.638 | 0.729 | 0.571 | 0.55 | 0.708 | 0.753 | 0.649 | 0.68 | 0.461 | 0.618 | 0.491 | 0.606 | 1.12 | 1.03 | 0.997 | 1.39 | 0.649 |
| NCI-H2347 | – | 0.274 | 0.188 | 0.302 | 0.39 | 0.356 | 0.525 | 0.38 | 0.748 | 0.576 | 0.613 | 0.748 | 0.787 | 0.833 | 0.712 | 0.945 | 0.298 |
| HCC-827 | 0.358 | 0.206 | 0.262 | 0.143 | 0.785 | 0.968 | 0.828 | 0.778 | 1.03 | 1.15 | 1.04 | 1.05 | 0.217 | 0.207 | 0.251 | 0.194 | 0.277 |
| LOU-NH91 | 0.473 | 0.485 | 0.522 | 0.38 | 0.717 | – | 0.772 | 0.679 | – | 0.509 | 0.546 | 0.512 | – | 0.806 | 0.865 | 0.753 | 0.474 |
| NCI-H1651 | 0.446 | 0.368 | 0.352 | 0.428 | 0.9 | 0.426 | 0.782 | 0.582 | 0.658 | 0.754 | 0.741 | 0.595 | 0.557 | 0.503 | 0.527 | 0.422 | 0.386 |
| NCI-H1792 | – | 0.755 | – | 0.685 | – | 0.823 | 0.817 | 0.775 | 0.321 | 0.299 | 0.227 | 0.253 | 0.896 | 0.79 | 0.866 | 0.885 | 0.759 |
| PC-3 [JPC-3] | 0.865 | 0.774 | 0.979 | 0.327 | 0.783 | 0.887 | 0.84 | 0.793 | 0.812 | 0.839 | 0.756 | 0.788 | 0.886 | 0.925 | 0.918 | 0.847 | 0.862 |
| NCI-H596 | – | 0.579 | 0.5 | 0.564 | 0.924 | 0.856 | 0.781 | 0.81 | 0.382 | 0.379 | 0.405 | 0.343 | 1.07 | 1.36 | 1.23 | 1.04 | 0.545 |
| NCI-H838 | 0.327 | 0.297 | 0.251 | 0.289 | 0.424 | 0.389 | 0.438 | 0.389 | 0.535 | 0.444 | 0.598 | 0.472 | 1.06 | 1.01 | 0.956 | 1.01 | 0.286 |
| NCI-H358 | 0.149 | 0.136 | 0.152 | 0.0966 | 0.942 | 0.79 | 1.04 | 0.75 | 0.387 | 0.313 | 0.393 | 0.336 | 0.448 | 0.504 | 0.491 | 0.486 | – |
| NCI-H647 | – | 0.167 | 0.206 | 0.174 | 0.722 | 0.642 | 0.736 | 0.571 | 0.498 | 0.356 | 0.396 | 0.471 | 0.492 | 0.583 | 0.71 | 0.62 | 0.164 |
| HCC-366 | 0.734 | 0.633 | 0.538 | 0.597 | 1.06 | 1.14 | 1.13 | 1.12 | 0.124 | 0.666 | 0.137 | 0.16 | 0.38 | 0.417 | 0.416 | 0.343 | 0.569 |
